Experimental data: EP0958819A1, “REMEDIES/PREVENTIVES FOR ABNORMAL MOTIONS ACCOMPANYING DISORDERS IN EXTRAPYRAMIDAL SYSTEM” (Asahi Kasei Kogyo Kabushiki Kaisha, priority 1996, dated 1998)
Structures can show the parent of a compound that is named as a salt. Marks after values point to notes of the source that are not given here.

Key:
[1] = system: involuntary head-movements induced by IPDN; test: Antagonistic action against IDPN model (head movements); format: in vivo, Sprague-Dawley rats; settings: 1 mg/kg p.o.; IDPN 150 mg/kg i.p. for 6 days; counted during 30 minutes starting 30 minutes after dosing; mean ± standard error, 6 rats; control group 347 ± 14.4; p < 0.01
Description: When […] (IDPN, Tokyo Kasei Kogyo K.K., Japan) is administered in rats, rapid reciprocation of horizontal and vertical head movements is induced. […] This is very similar to the abnormal movements accompanying disorders of extrapyramidal system of human, which is classified into the group with major symptom of rapid involuntary movement and muscle hypotonia. (Schneider, J. S., Exp. Neurol., 84, 524 - 532, 1984).
IDPN (Tokyo Kasei Kogyo K.K., Japan) 150 mg/kg was administered to Sprague-Dawley rats (Charles River Inc., 7 weeks old) for 6 days intraperitoneally. Animals expressing horizontal and vertical head movements (at initiation of the experiment: 12 - 14 weeks old) within after 2 weeks of administration were used for dyskinesia model animals. The compound of the present invention (1 mg/kg) or distilled water (as a control group) was administered orally in rats. After 30 minutes, numbers of horizontal and vertical head movements neck during 30 minutes thereafter were counted. One reciprocation is counted as one motion.

dystonia model = test: Inhibitory effect against dystonia model (haloperidol infused into red nucleus); format: in vivo, Wistar rats; settings: combined infusion of haloperidol 3 nmol and compound 0.03 nmol into red nucleus; maximum torsional angle, mean ± S.D., 12 rats; control (haloperidol 3 nmol) 24.1 ± 1.7; p<0.01
Description: Unilateral infusion of haloperidol into red nucleus of rats results to appear continuous torsional movements of the head when the infusion side was laid down under side. This model reflects dystonia characterized by slow involuntary movement and hypermyotonia, which is one of abnormal movements accompanying disorders of extrapyramidal system. (Matsumoto, R.R. et al. Pharmacol. Biochem. Behavior.,36, 151 - 155, 1989). Evaluation of the compound of the present invention on dystonia model was performed by the following method.
Wistar rats (Japan Charles River Inc., 9 weeks old) were anesthetized by administration of pentobarbital (Somnopentil injection) 50 mg/kg intraperitoneally, and fixed the head by stereotaxic apparatus (David Coop Inc. U.S.A., David kopf). Scalp was incised and the bone of skull was exposed. Guide cannula 25G (Eicom Inc., Japan) was implanted 4.5 mm the above the left red nucleus and fixed with dental cement. After 2 - 3 days, injection cannula 27G (Eicom Inc., Japan) was inserted into the guide cannula without anesthetization. The tip of the cannula was introduced into the red nucleus below 4.5 mm of the guided cannula. […]
Rats were set into the observation cage made with transparent acrylic resin and recorded the front view image by video camera. […]

[2] = system: haloperidol-induced catalepsy; test: Preventive effect for catalepsy model, haloperidol-induced; format: in vivo, Wistar rats; settings: 1 mg/kg p.o. 30 minutes before haloperidol 2 mg/kg i.p.; catalepsy observed 1 hour after haloperidol; shortening of catalepsy duration vs distilled water group; 10 rats
Description: (§1) When a drug having dopamine receptor blocking activity is administered in rats, catalepsy induced. Catalepsy means a symptom of rats, which can not recovered by own intention, when rats are enforced unnatural posture, and it reflects abnormal movements consisting of mainly tremor, muscle rigidity and hypokinesia. (Hornykiewicz, O. Br. Med. Bull., 29, 172 - 178, 1973). […] (Schmidt, W.J. and Bubser, M., Pharmacol. Biochem. Behavior., 32, 621 - 623, 1988).
(§2) The compound A hydrochloride, 1mg/kg, was administered orally into Wistar rats, male (Japan Charles River Inc.). After 30 minutes, haloperidol (Sigma Corp., U.S.A.), 2mg/kg, or risperidone, which was extracted from Risperdal (trade name, Janssen Corp.,UK) according to the method hereinbelow explained, 20 mg/kg were administered intraperitoneally. Catalepsy after 1 hour of administration of haloperidol or risperidone was observed. Catalepsy was observed by hanging rats in their forepaws on the iron bar, diameter 2 mm, set on the position of 12 cm high, and we measured the time maintaining this posture. Measurements were conducted maximum for 180 seconds. Experiments were conducted in a group of 10 rats for haloperidol induced catalepsy test and a group of 5 rats for risperidone induced catalepsy test. The mean duration of catalepsy in distilled water (vehicle of the compound in present invention)-administered group was defined as 100 %. […]

red nucleus = test: Effect on the firing rate in the red nucleus (electrophysiology, anesthetized rats); format: in vivo, Wistar rats; settings: firing rate before administration = 100 %
Description: The red nucleus belongs extrapyramidal system and have an important role for regulating motor function. Destruction of the red nucleus in rats was reported to enhance the catalepsy. (Kolasa. K. et al., Pharmacol. Biochem. Behav.,51, 29 - 35, 1995). As shown in Example 4 dystonia model, unilateral infusion of haloperidol into red nucleus of rats results to appear dystonia. As shown like this, the hypofunction of red nucleus have a close relation with the expression of abnormal movements accompanying disorders of extrapyramidal system. Namely, hypofunction of red nucleus is considered to lead to the abnormal movements accompanying disorder of extrapyramidal system. In this experiment, effect of the compound of the present invention on the haloperidol-induced decrease of firing rate in red nucleus was examined. […]
Electric signals from the glass electrode were amplified with a micro electrode amplifier (MEZ-8301, Nihon Koden Co., Japan), filtered band path of 3 kHz - 50 Hz and humfilter and monitored on a oscilloscope (VC-11, Nihon Koden Co., Japan). […] Number of firing/10 seconds (firing rate) was calculated using pulse counter (MET-1100, Nihon Koden Co., Japan) and recorded by computer (Maclab ver. 3.5. Macintosh) with time dependent manner. […]

[3] = system: risperidone-induced catalepsy; test: Therapeutic effect against catalepsy model, risperidone-induced; format: in vivo, Wistar rats; settings: 1 mg/kg p.o. given 75 minutes after risperidone 20 mg/kg i.p. to rats showing catalepsy; measured 105 minutes after compound; 5 to 6 rats
Description: (§3) Therapeutic effects of the compound of the present invention on haloperidol or risperidone induced catalepsy were examined using Wistar rats, male (Charles River Inc., Canada).
After further 15 minutes, the compound of the present invention or distilled water was administered orally. Therapeutic effect of the present compound against risperidone induced catalepsy was measured after 105 minutes of administration of the compound of the present invention.
(§4) Catalepsy was observed by hanging rats in their forepaws on the iron bar, diameter 2 mm, set on the position of 12 cm high, and we measured the duration of catalepsy. Measurements were conducted maximum for 180 seconds. Experiments were conducted in a group of 10 rats for haloperidol-induced catalepsy test and a group of 5 to 6 rats for risperidone induced catalepsy test. The mean duration of catalepsy in distilled water (vehicle of the compound in present invention)-administered group was defined as 100 %. Suppressive rate was indicated as percent of the shortening on the duration of catalepsy in the compound-administered group comparing with the mean of that in distilled water administered group.

[4] = system: haloperidol-induced catalepsy; test: Therapeutic effect against catalepsy model, haloperidol-induced; format: in vivo, Wistar rats; settings: 1 mg/kg p.o. given 45 minutes after haloperidol 2 mg/kg i.p. to rats showing catalepsy; measured 75 minutes after compound; 10 rats
Description: as §3
After further 15 minutes, the compound of the present invention or distilled water was administered orally. Therapeutic effect of the present compound against haloperidol induced catalepsy was measured after 75 minutes of administration of the compound of the present invention.
as §4

[5] = system: risperidone-induced catalepsy; test: Preventive effect for catalepsy model, risperidone-induced; format: in vivo, Wistar rats; settings: 1 mg/kg p.o. 30 minutes before risperidone 20 mg/kg i.p.; catalepsy observed 1 hour after risperidone; shortening of catalepsy duration vs distilled water group; 5 rats
Description: as §1, §2

**Q.** With CC1(C)C2CC[C@]1(C)CN(CCC1C3CC4CC(C3)CC1C4)C2 (stereo partly drawn) [Compound A, (1S)-3-[2-(2-adamantyl)ethyl]-1,8,8-trimethyl-3-azabicyclo [3.2.1]-octane] as the compound, how does the “Numbers of oscillation of neck” value [1] read?
**A.** 224.5 ± 24.4

**Q.** And the “torsional angle of head” value (dystonia model)?
**A.** 15.5 ± 1.3

**Q.** Which results are given for CC1(C)C2CC[C@]1(C)CN(CCC1C3CC4CC(C3)CC1C4)C2 (stereo partly drawn) [Compound A hydrochloride, (1S)-3-[2-(2-adamantyl)ethyl]-1,8,8-trimethyl-3-azabicyclo [3.2.1]-octane]?
**A.** Suppressive rate (mg/kg, p.o.) [2]: 77% (1); % Inhibitor of firing rate (red nucleus; compound 0.1 µg/kg i.v. 1 - 3 minutes before haloperidol 0.2 mg/kg i.v., P<0.05): 24.7 %*; Suppressive rate (mg/kg, p.o.) [3]: 48% (1); Suppressive rate (mg/kg, p.o.) [4]: 50% (1); Suppressive rate (mg/kg, p.o.) [5]: 53% (1)

**Q.** Which “% Inhibitor of firing rate” value (red nucleus; saline i.v. 1 - 3 minutes before haloperidol 0.2 mg/kg i.v.) does the source give for O=C(CCCN1CCC(O)(c2ccc(Cl)cc2)CC1)c1ccc(F)cc1 [haloperidol, reference compound] here?
**A.** 60.1%
